In ChEMBL document CHEMBL5465560, “Selectivity Literature for EUbOPEN Chemogenomic Library” (2024):
Each block holds one compound with its values, some of them ahead of it.

What was measured:
[1] = target: Serine/threonine-protein kinase PRP4 homolog (Homo sapiens) (UniProt Q13523); assay: Selectivity interaction (ActivX KiNativ screen (kinase selectivity in THP-1 cell lysates)) EUB0000639a PRPF4; type: subcellular; settings: lysate, at 0.04 µM
[2] = target: T1, Histone-lysine N-methyltransferase SETD7 (Homo sapiens) (UniProt Q8WTS6); assay: Selectivity interaction (Methyltransferase screen (radiometric assays, panel of 8 PRMTs, 21 protein lysine methyltransferases, 3 DNA methyltransferases, and one RNA methyltransferase)) EUB0000271b SETD7
T1 sequence (whole entry): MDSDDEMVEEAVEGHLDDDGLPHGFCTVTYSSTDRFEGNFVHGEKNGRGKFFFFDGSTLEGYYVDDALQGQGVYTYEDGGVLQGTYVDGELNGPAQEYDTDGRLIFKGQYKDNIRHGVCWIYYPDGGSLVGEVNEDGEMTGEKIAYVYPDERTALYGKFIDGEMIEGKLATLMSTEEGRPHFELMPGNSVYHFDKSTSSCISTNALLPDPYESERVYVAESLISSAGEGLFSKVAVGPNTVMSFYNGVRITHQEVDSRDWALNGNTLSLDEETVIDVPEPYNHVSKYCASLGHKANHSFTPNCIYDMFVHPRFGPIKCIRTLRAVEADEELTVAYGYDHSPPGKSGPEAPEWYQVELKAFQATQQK

[3] = target: T2, Cytoplasmic tyrosine-protein kinase BMX (Homo sapiens) (UniProt P51813); assay: Selectivity interaction (KinomeScan (DiscoverX)) EUB0000595a BMX; settings: at 10 µM
T2 sequence (whole entry): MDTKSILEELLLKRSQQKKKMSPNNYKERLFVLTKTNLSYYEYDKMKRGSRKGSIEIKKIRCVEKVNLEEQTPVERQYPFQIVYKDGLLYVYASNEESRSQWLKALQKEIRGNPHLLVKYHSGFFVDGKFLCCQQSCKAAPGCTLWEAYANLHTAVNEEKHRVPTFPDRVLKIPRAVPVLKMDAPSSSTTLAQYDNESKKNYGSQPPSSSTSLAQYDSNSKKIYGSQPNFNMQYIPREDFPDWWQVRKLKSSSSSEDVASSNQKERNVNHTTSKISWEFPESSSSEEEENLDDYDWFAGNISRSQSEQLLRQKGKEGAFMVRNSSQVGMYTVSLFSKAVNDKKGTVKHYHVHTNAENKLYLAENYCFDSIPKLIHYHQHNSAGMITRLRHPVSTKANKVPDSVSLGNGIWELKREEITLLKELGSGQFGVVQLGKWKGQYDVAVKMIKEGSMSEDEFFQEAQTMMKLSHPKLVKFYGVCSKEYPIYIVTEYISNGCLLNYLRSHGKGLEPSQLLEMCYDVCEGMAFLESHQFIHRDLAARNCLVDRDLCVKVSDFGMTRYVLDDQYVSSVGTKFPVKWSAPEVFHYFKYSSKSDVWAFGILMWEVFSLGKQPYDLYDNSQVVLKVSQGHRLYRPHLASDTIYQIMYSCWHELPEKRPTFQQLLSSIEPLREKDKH

[4] = target: T3, Ephrin type-A receptor 1 (Homo sapiens) (UniProt P21709); settings: at 10 µM
T3 sequence (whole entry): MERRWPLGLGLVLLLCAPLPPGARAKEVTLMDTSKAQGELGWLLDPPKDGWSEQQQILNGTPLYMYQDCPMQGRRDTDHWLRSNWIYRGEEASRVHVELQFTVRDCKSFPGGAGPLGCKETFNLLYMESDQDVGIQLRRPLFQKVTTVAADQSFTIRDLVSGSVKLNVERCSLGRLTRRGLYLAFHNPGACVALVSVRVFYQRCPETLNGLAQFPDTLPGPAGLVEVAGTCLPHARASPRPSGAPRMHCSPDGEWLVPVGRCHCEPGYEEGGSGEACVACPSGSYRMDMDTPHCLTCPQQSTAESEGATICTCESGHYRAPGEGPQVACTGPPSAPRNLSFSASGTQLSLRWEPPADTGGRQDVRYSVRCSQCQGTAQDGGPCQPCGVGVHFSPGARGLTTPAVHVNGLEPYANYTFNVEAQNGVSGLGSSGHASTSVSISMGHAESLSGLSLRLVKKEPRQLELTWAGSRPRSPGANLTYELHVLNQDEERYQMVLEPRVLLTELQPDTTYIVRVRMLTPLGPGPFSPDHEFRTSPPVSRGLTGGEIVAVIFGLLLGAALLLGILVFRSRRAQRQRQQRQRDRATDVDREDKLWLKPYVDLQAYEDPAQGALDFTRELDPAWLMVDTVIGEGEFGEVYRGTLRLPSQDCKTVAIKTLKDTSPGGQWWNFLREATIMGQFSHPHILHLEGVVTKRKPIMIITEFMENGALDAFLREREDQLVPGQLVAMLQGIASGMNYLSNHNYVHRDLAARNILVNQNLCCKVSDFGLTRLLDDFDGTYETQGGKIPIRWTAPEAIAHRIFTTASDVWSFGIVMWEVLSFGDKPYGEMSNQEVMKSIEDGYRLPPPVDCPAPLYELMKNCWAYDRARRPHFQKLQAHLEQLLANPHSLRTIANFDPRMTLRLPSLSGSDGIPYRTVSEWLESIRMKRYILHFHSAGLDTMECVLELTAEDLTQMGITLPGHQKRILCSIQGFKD

Chain of Serine/threonine-protein kinase PRP4 homolog (Homo sapiens) (Q13523 whole entry): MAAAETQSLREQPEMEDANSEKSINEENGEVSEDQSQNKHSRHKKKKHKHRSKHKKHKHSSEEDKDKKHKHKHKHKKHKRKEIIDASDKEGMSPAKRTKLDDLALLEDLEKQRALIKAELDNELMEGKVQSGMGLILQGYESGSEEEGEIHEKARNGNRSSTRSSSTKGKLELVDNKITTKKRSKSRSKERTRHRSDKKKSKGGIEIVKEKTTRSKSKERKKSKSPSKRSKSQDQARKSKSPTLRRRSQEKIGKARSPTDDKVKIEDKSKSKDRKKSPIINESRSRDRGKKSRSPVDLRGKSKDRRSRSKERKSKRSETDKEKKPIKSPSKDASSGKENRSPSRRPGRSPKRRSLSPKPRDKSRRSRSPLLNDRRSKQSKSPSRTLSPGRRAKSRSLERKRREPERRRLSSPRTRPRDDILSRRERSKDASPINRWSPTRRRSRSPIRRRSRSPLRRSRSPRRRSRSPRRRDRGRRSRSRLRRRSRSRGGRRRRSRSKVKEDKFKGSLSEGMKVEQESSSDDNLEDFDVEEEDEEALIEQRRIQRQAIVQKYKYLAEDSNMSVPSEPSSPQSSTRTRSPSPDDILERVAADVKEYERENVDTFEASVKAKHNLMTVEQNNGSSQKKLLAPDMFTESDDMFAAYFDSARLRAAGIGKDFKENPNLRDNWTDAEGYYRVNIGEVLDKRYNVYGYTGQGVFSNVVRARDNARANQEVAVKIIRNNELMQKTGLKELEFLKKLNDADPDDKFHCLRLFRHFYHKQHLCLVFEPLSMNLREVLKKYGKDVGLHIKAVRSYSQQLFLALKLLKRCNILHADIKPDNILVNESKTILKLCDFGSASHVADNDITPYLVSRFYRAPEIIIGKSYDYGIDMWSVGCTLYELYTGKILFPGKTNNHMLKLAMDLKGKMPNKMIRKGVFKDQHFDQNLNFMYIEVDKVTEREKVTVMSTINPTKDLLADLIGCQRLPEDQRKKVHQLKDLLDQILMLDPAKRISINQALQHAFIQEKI

- % of inhibition [1]: 16%
Structure (SMILES): CC[C@@H]1[C@H](F)C(=O)N[C@@H]1COc1nccc2cc(C(N)=O)c(OC)cc12 [ZIMLOVISERTIB]

Structure (SMILES): Cc1cc(C)cc([C@@H]2c3cc(C)ccc3NC(=O)CN2C(=O)c2ccc(Br)s2)c1
- % of activity ([2]; at 1 µM): 95.3%
- % of activity ([2]; at 10 µM): 95.7%

Structure (SMILES): COCC(=O)NC/C=C/c1ccc2ncnc(Nc3ccc(Oc4ccc(C)nc4)c(C)c3)c2c1 [CP-724714]
- % of control [3]: 73%

Structure (SMILES): Cc1cc([C@@H](C)Nc2ccccc2C(=O)O)c2nc(N3CCOCC3)cc(=O)n2c1 [AZD-6482]
- % of control [4]: 100%
